# Experimental data: patent publication US20210261621A1, “Preparation of Dilipid Polymixins and Use Thereof as Antimicrobial Adjuvants” (priority 2018, published 2021)
# Values joined by “and” are separate entries in the source; they are usually repeats but may differ in a detail not shown here. Identical values can stand only once. Like-named read-outs stand apart in the source and are kept apart here. Positions of bridges follow the written chain, without caps; N, C: chain ends. Non-standard residues stand in square brackets, D forms with d. Residues, ends and D or L forms follow the SMILES beside them. *: point of attachment. Acetyl(1-adamantyl) = O=C(CC12CC3CC(CC(C3)C1)C2)*; Dab = NCC[C@H](N)C(=O)O
# Tested on: P. aeruginosa PAO1
# Design: MICDrug / MICDrug in combo / MIC of adjuvant in combo: unit not given beside the values
structure (smiles),measurement,setting,value
"CC(C)C[C@@H]1NC(=O)[C@@H](Cc2ccccc2)NC(=O)[C@H](CCN)NC(=O)[C@@H](NC(=O)[C@H](CCN)NC(=O)[C@@H](NC(=O)[C@H](CCNC(=O)CC23CC4CC(CC(C4)C2)C3)NC(=O)CC23CC4CC(CC(C4)C2)C3)[C@@H](C)O)CCNC(=O)[C@H]([C@@H](C)O)NC(=O)[C@H](CCN)NC(=O)[C@H](CCN)NC1=O [Compound 4, Diadamantane Acetic Acid (Di-Adamantyl) Polymyxin] ({Acetyl(1-adamantyl)}-[Dab](Acetyl(1-adamantyl))T[Dab][Dab][Dab][dF]L[Dab][Dab]T; lactam 4-C)","MIC of adjuvant alone (MIC1, MIC2, MIC3, MIC4, MIC5, MICPMBN)","adjuvant alone, one value per checkerboard, in µg/mL",16 and 8
same,Interpretation,combination with Aztreonam,"Additive (An FIC index of ≤0.5, 0.5<x≤4, or >4 denotes for synergistic, additive or antagonistic interaction, respectively)"
same,Interpretation,combination with Ceftazidime,"Additive (An FIC index of ≤0.5, 0.5<x≤4, or >4 denotes for synergistic, additive or antagonistic interaction, respectively)"
same,Interpretation,combination with Chloramphenicol,"Additive (An FIC index of ≤0.5, 0.5<x≤4, or >4 denotes for synergistic, additive or antagonistic interaction, respectively)"
same,Interpretation,combination with Ciprofloxacin,"Additive (An FIC index of ≤0.5, 0.5<x≤4, or >4 denotes for synergistic, additive or antagonistic interaction, respectively)"
same,Interpretation,combination with Clindamycin,"Additive (An FIC index of ≤0.5, 0.5<x≤4, or >4 denotes for synergistic, additive or antagonistic interaction, respectively)"
same,Interpretation,combination with Doripenem,"Additive (An FIC index of ≤0.5, 0.5<x≤4, or >4 denotes for synergistic, additive or antagonistic interaction, respectively)"
same,Interpretation,combination with Doxycycline,"Additive (An FIC index of ≤0.5, 0.5<x≤4, or >4 denotes for synergistic, additive or antagonistic interaction, respectively)"
same,Interpretation,combination with Fosfomycin,"Additive (An FIC index of ≤0.5, 0.5<x≤4, or >4 denotes for synergistic, additive or antagonistic interaction, respectively)"
same,Interpretation,combination with Gentamicin,"Additive (An FIC index of ≤0.5, 0.5<x≤4, or >4 denotes for synergistic, additive or antagonistic interaction, respectively)"
same,Interpretation,combination with Linezolid,"Additive (An FIC index of ≤0.5, 0.5<x≤4, or >4 denotes for synergistic, additive or antagonistic interaction, respectively)"
same,Interpretation,combination with Meropenem,"Additive (An FIC index of ≤0.5, 0.5<x≤4, or >4 denotes for synergistic, additive or antagonistic interaction, respectively)"
same,Interpretation,combination with Minocycline,"Additive (An FIC index of ≤0.5, 0.5<x≤4, or >4 denotes for synergistic, additive or antagonistic interaction, respectively)"
same,Interpretation,combination with Moxifloxacin,"Additive (An FIC index of ≤0.5, 0.5<x≤4, or >4 denotes for synergistic, additive or antagonistic interaction, respectively)"
same,Interpretation,combination with Novobiocin,"Additive (An FIC index of ≤0.5, 0.5<x≤4, or >4 denotes for synergistic, additive or antagonistic interaction, respectively)"
same,Interpretation,combination with Piperacillin,"Additive (An FIC index of ≤0.5, 0.5<x≤4, or >4 denotes for synergistic, additive or antagonistic interaction, respectively)"
same,Interpretation,combination with Pleuromutilin,"Additive (An FIC index of ≤0.5, 0.5<x≤4, or >4 denotes for synergistic, additive or antagonistic interaction, respectively)"
same,Interpretation,combination with Rifampicin,"Additive (An FIC index of ≤0.5, 0.5<x≤4, or >4 denotes for synergistic, additive or antagonistic interaction, respectively)"
same,Interpretation,combination with Streptomycin,"Additive (An FIC index of ≤0.5, 0.5<x≤4, or >4 denotes for synergistic, additive or antagonistic interaction, respectively)"
same,Interpretation,combination with Tobramycin,"Additive (An FIC index of ≤0.5, 0.5<x≤4, or >4 denotes for synergistic, additive or antagonistic interaction, respectively)"
same,Interpretation,combination with Trimethoprim,"Additive (An FIC index of ≤0.5, 0.5<x≤4, or >4 denotes for synergistic, additive or antagonistic interaction, respectively)"
same,Interpretation,combination with Vancomycin,"Additive (An FIC index of ≤0.5, 0.5<x≤4, or >4 denotes for synergistic, additive or antagonistic interaction, respectively)"
same,MIC of adjuvant in combo,in combination with Aztreonam,(8)
same,MIC of adjuvant in combo,in combination with Ceftazidime,(8)
same,MIC of adjuvant in combo,in combination with Chloramphenicol,(4)
same,MIC of adjuvant in combo,in combination with Ciprofloxacin,(0.25)
same,MIC of adjuvant in combo,in combination with Clindamycin,(4)
same,MIC of adjuvant in combo,in combination with Doripenem,(8)
same,MIC of adjuvant in combo,in combination with Doxycycline,(4)
same,MIC of adjuvant in combo,in combination with Fosfomycin,(4)
same,MIC of adjuvant in combo,in combination with Gentamicin,(0.25)
same,MIC of adjuvant in combo,in combination with Linezolid,(8)
same,MIC of adjuvant in combo,in combination with Meropenem,(4)
same,MIC of adjuvant in combo,in combination with Minocycline,(4)
same,MIC of adjuvant in combo,in combination with Moxifloxacin,(4)
same,MIC of adjuvant in combo,in combination with Novobiocin,(4)
same,MIC of adjuvant in combo,in combination with Piperacillin,(0.25)
same,MIC of adjuvant in combo,in combination with Pleuromutilin,(4)
same,MIC of adjuvant in combo,in combination with Rifampicin,(4)
same,MIC of adjuvant in combo,in combination with Streptomycin,(0.25)
same,MIC of adjuvant in combo,in combination with Tobramycin,(0.25)
same,MIC of adjuvant in combo,in combination with Trimethoprim,(8)
same,MIC of adjuvant in combo,in combination with Vancomycin,(4)
same,adjuvant activity (potentiation of the panel of 21 antibiotics),result in words,did not enhance the activity of any antibiotics
